Experimental data: ChEMBL document CHEMBL1201862, “PubChem BioAssay data set” (2004)
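Where inhibition never reached the appropriate level, the endpoint shown equals the highest concentration tested. Otherwise, values were interpolated linearly from a five-concentration, 48-hour dose response in 96-well plates. The concentration for 50% growth inhibition is given as GI50.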 Activity calls are given as the source filed them. No stated cut-off is given here; in the data, active = GI50 up to about 1.1 µM and inactive = higher.

Tests used:
Experiment in all cases: NCI tumour cell line growth inhibition, 48 h
[1] = test system: A549
[2] = test system: ACHN
[3] = test system: HCC 2998
[4] = test system: HL-60
[5] = test system: IGROV-1
[6] = test system: MCF7
[7] = test system: MDA-MB-435
[8] = test system: NCI-H23
[9] = test system: NCI/ADR-RES
[10] = test system: SF-268
[11] = test system: SK-MEL-28
[12] = test system: SK-MEL-2
[13] = test system: SK-MEL-5
[14] = test system: SK-OV-3
[15] = test system: SNB-19
[16] = test system: UACC-257
[17] = test system: UACC-62
[18] = test system: NCI-H460
[19] = test system: Malme-3M
[20] = test system: NCI-H522

| Structure (SMILES) | GI50 [1] | GI50 [2] | GI50 [3] | GI50 [4] | GI50 [5] | GI50 [6] | GI50 [7] | GI50 [8] | GI50 [9] | GI50 [10] | GI50 [11] | GI50 [12] | GI50 [13] | GI50 [14] | GI50 [15] | GI50 [16] | GI50 [17] | GI50 [18] | GI50 [19] | GI50 [20] |
| --- | --- | --- | --- | --- | --- | --- | --- | --- | --- | --- | --- | --- | --- | --- | --- | --- | --- | --- | --- | --- |
| COc1cc(C2C3=C(N=C4SC(C(C)=O)=C(C)N42)c2ccccc2CC3)cc(OC)c1OC (stereo not drawn) | > 100 µM (inactive) | > 100 µM (inactive) | > 100 µM (inactive) | 30.8 µM (inactive) | 52 µM (inactive) | 75.5 µM (inactive) | 57 µM (inactive) | > 100 µM (inactive) | 78.9 µM (inactive) | > 100 µM (inactive) | > 100 µM (inactive) | > 100 µM (inactive) | 41.8 µM (inactive) | > 100 µM (inactive) | > 100 µM (inactive) | > 100 µM (inactive) | > 100 µM (inactive) |  |  |  |
| CN(C)/N=N/c1ccc(NC=O)cc1 | > 100 µM (inactive) | > 100 µM (inactive) | > 100 µM (inactive) | 51.9 µM (inactive) | > 100 µM (inactive) | > 100 µM (inactive) | > 100 µM (inactive) |  | > 100 µM (inactive) | 0.456 µM (active) | > 100 µM (inactive) | > 100 µM (inactive) | > 100 µM (inactive) | > 100 µM (inactive) | > 100 µM (inactive) | > 100 µM (inactive) | 40.6 µM (inactive) | > 100 µM (inactive) |  |  |
| CN1C(=O)[C@@H]2[C@@H]3c4ccccc4N(S(=O)(=O)C(F)(F)F)[C@@H]3c3[nH]c4ccccc4c3[C@@H]2C1=O | 11.2 µM (inactive) | 25.1 µM (inactive) | > 100 µM (inactive) |  | 0.175 µM (active) | 11.6 µM (inactive) | > 100 µM (inactive) | 54.1 µM (inactive) | 26.3 µM (inactive) | > 100 µM (inactive) | > 100 µM (inactive) | 81.5 µM (inactive) | 36.4 µM (inactive) | > 100 µM (inactive) | > 100 µM (inactive) | 62.5 µM (inactive) | > 100 µM (inactive) | 21.5 µM (inactive) |  |  |
| C[C@]12CC[C@H](O)CC1=CC[C@@H]1[C@@H]2CC[C@]2(C)C(=O)CC[C@@H]12 [PRASTERONE] | > 100 µM (inactive) | > 100 µM (inactive) | > 100 µM (inactive) |  |  | > 100 µM (inactive) | > 100 µM (inactive) | > 100 µM (inactive) | > 100 µM (inactive) | > 100 µM (inactive) | > 100 µM (inactive) | > 100 µM (inactive) | > 100 µM (inactive) | > 100 µM (inactive) | > 100 µM (inactive) | > 100 µM (inactive) | > 100 µM (inactive) |  | > 100 µM (inactive) | > 100 µM (inactive) |
| O=S(=O)(O)c1ccc2cc(/N=N\c3cc(S(=O)(=O)O)c4cccnc4c3O)ccc2c1 | > 100 µM (inactive) | > 100 µM (inactive) |  | 1.61 µM (inactive) | > 100 µM (inactive) | > 100 µM (inactive) | > 100 µM (inactive) | > 100 µM (inactive) | > 100 µM (inactive) | > 100 µM (inactive) | > 100 µM (inactive) | > 100 µM (inactive) | > 100 µM (inactive) | > 100 µM (inactive) | > 100 µM (inactive) | > 100 µM (inactive) | > 100 µM (inactive) | > 100 µM (inactive) | > 100 µM (inactive) | > 100 µM (inactive) |
| O=c1c2ccccc2ncn1COCc1ccccc1 | > 100 µM (inactive) | > 100 µM (inactive) | > 100 µM (inactive) | > 100 µM (inactive) | > 100 µM (inactive) | > 100 µM (inactive) | > 100 µM (inactive) |  | > 100 µM (inactive) |  | > 100 µM (inactive) | > 100 µM (inactive) | > 100 µM (inactive) | > 100 µM (inactive) | > 100 µM (inactive) | > 100 µM (inactive) | > 100 µM (inactive) |  |  |  |
| C=CCCC1(O)C(O)C(CO)O[C@H](O[C@@]2(CO)OC(CO)C(O)C2O)C1O (stereo partly drawn) | > 100 µM (inactive) | > 100 µM (inactive) |  | > 100 µM (inactive) | > 100 µM (inactive) | > 100 µM (inactive) | > 100 µM (inactive) | > 100 µM (inactive) | > 100 µM (inactive) | > 100 µM (inactive) | > 100 µM (inactive) | > 10 µM (inactive) | > 100 µM (inactive) |  | > 100 µM (inactive) | > 100 µM (inactive) |  | > 100 µM (inactive) | > 100 µM (inactive) | > 100 µM (inactive) |
| CCOC(=O)CNC(=O)C(CSCc1ccc(Br)cc1)NC(=O)CCC(N)C(=O)OCC (stereo not drawn) | > 50 µM (inactive) | > 50 µM (inactive) | > 50 µM (inactive) |  | > 50 µM (inactive) | > 50 µM (inactive) | > 50 µM (inactive) | > 50 µM (inactive) | > 50 µM (inactive) | > 50 µM (inactive) | > 50 µM (inactive) | > 50 µM (inactive) | > 50 µM (inactive) | > 50 µM (inactive) | > 50 µM (inactive) | > 50 µM (inactive) | > 50 µM (inactive) | > 50 µM (inactive) |  | > 50 µM (inactive) |
| NCC(=O)N[C@H]1c2ccsc2/C(=N/O)[C@H]1O | > 100 µM (inactive) |  | > 100 µM (inactive) | > 100 µM (inactive) | > 100 µM (inactive) | > 100 µM (inactive) | > 100 µM (inactive) | > 100 µM (inactive) | > 100 µM (inactive) |  | > 100 µM (inactive) | > 100 µM (inactive) | > 100 µM (inactive) | > 100 µM (inactive) |  | > 100 µM (inactive) | > 100 µM (inactive) | > 100 µM (inactive) | > 100 µM (inactive) |  |
| CCOC(=O)c1csc(NC(=O)C(C)N2CCCCC2)n1 (stereo not drawn) | > 100 µM (inactive) | > 100 µM (inactive) | > 100 µM (inactive) | > 100 µM (inactive) | > 100 µM (inactive) | > 100 µM (inactive) | > 100 µM (inactive) | > 100 µM (inactive) | > 100 µM (inactive) |  | > 100 µM (inactive) | > 100 µM (inactive) | > 100 µM (inactive) | > 100 µM (inactive) | > 100 µM (inactive) | > 100 µM (inactive) | > 100 µM (inactive) | > 100 µM (inactive) | > 100 µM (inactive) |  |
| O=C1Nc2ccccc2C(=O)/C1=C/NC(=S)NCCc1ccccc1 | > 100 µM (inactive) | > 100 µM (inactive) | > 100 µM (inactive) | > 100 µM (inactive) | > 100 µM (inactive) | > 100 µM (inactive) | > 100 µM (inactive) | > 100 µM (inactive) | > 100 µM (inactive) |  | > 100 µM (inactive) | > 100 µM (inactive) | > 100 µM (inactive) | > 100 µM (inactive) | > 100 µM (inactive) | > 100 µM (inactive) | > 100 µM (inactive) | > 100 µM (inactive) |  |  |
